# Results as given in paper PMC11250742, “Preclinical evaluation of CXCR4 peptides for targeted radionuclide therapy in glioblastoma” (EJNMMI Radiopharmacy and Chemistry, 2024).
# Where a SMILES comes first, the peptide text is derived from it. Bridges are numbered along the chain shown (N, C = ends). [ ]: non-standard residue; d: D form. The star is where a group is joined. DOTA = O=C(O)CN1CCN(CC(=O)O)CCN(CC(=O)*)CCN(CC(=O)O)CC1; 2Nal = N[C@@H](Cc1ccc2ccccc2c1)C(=O)O; Cit = NC(=O)NCCC[C@H](N)C(=O)O
# Columns and labels:
# CXCR4 = molecular target: T1, CXCR4 (Homo sapiens, UniProt P61073); experiment: Saturation binding assay on U87-CXCR4 + cells; conditions: 0.1–1000 nM, 4 h, 37 °C; NSB with 100 µM AMD11070; N = 2
# T1 construct: expressed in transfected cells; host or cells: U87-MG (U87-CXCR4+), kept under blasticidin selection
# Description: In the saturation binding assays, U87-CXCR4 + cells were seeded in 24-well plates and allowed to adhere. The night before the experiment, complete media was replaced with media containing 2% FBS. To determine the total binding, cells were treated with a mixture of each radiolabelled peptide (at final concentrations ranging from 0.1 to 1000 nM, corresponding to activity concentrations ranging from 0.005 to 50 MBq/mL) with 0.2% dimethyl sulfoxide (DMSO, vehicle). Non-specific binding (NSB) was verified by treating cells with a mixture of each radiolabelled peptide with 100 µM of AMD11070, a potent CXCR4 antagonist.
# After 4 h of incubation at 37 °C and 5% CO2, the unbound fraction was collected in gamma counter tubes, and the cells were washed twice with PBS. The wash fractions were added to the same gamma counter tubes. Next, cells were lysed by incubation with 1 M NaOH for 30 min at room temperature (RT). After collecting the lysed cell fractions, two washes with 1 M NaOH were performed, and added to the same fractions, corresponding to the total bound fractions.
# The activities of all collected fractions were measured in an automated gamma counter. […]
# Statistical analyses and data plotting were done using GraphPad Prism 10. […] Statistical significance was evaluated with one-way ANOVA followed by post-hoc comparisons with the untreated cells using Dunnett’s test. […]
# U87-CXCR4 + cells = experiment: MTS cell viability assay; format: cell-based; conditions: 2 h
# Description: Cell viability assays were performed using increasing activity concentrations of the radiolabelled peptides (1 to 20 MBq/mL), incubated with U87-CXC4 + cells for four hours at 37 °C, 5% CO2. After the incubation period, cells were washed twice with PBS and replenished with complete media. After five and seven days of treatment, the cell media was removed and MTS (3-(4,5-dimethylthiazol-2-yl)-5-(3-carboxymethoxyphenyl)-2-(4-sulfophenyl)-2 H-tetrazolium) reagent added, prepared according to manufacturer’s instructions (CellTiter 96® AQueous One Solution Cell Proliferation Assay, Promega, Wisconsin, United States). To determine the effect of the radiation originating from unbound radiolabelled peptides, cells were treated with equivalent activity concentrations of [^177Lu]Lu-DTPA. Triton X-100 (0.1%) was used as a positive control. Vehicle includes the NaOAc radiolabeling buffer at the concentration used for the 20 MBq/mL peptide solutions. The cells were incubated for 0.5–1 h with the MTS reagent at 37 °C, 5% CO2. Absorbance was measured at 490 nm using a BioTek Synergy H1 plate reader (Agilent Technologies, Mechelen, Belgium). Cell viability was normalised to the vehicle and calculated as percentage of cell viability.
# T1 sequence (P61073 whole entry): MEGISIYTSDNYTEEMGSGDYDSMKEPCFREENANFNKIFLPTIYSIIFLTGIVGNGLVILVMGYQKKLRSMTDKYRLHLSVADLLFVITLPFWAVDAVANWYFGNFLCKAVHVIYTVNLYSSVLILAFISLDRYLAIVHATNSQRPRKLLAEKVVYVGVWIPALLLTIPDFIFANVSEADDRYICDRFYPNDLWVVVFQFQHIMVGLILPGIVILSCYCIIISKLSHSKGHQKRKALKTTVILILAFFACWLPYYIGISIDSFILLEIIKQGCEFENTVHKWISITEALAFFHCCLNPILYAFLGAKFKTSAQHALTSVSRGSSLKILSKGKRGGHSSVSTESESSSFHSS
smiles,measurement,setting,value
"N=C(N)NCCC[C@@H]1NC(=O)[C@@H]2CSSC[C@H](NC(=O)[C@H](Cc3ccc4ccccc4c3)NC(=O)[C@H](CCCNC(=N)N)NC(=O)[C@H](CCCNC(=N)N)NC(=O)[C@H]3CCCN3C(=O)CNC1=O)C(=O)N[C@@H](Cc1ccc(O)cc1)C(=O)N[C@@H](CCC(N)=O)C(=O)N[C@@H](CCCCNC(=O)CN1CCN(CC(=O)O)CCN(CC(=O)O)CCN(CC(=O)O)CC1)C(=O)N1CCC[C@@H]1C(=O)N1CCC[C@H]1C(=O)N[C@@H](Cc1ccc(O)cc1)C(=O)N[C@@H](CCCNC(=N)N)C(=O)N[C@@H](CCCNC(N)=O)C(=O)N2 [[^177Lu]Lu-DOTA-POL3026, metal not drawn] (cyclo(RR[2Nal]CYQK(DOTA)[dP]PYR[Cit]CRG[dP]); disulfide 4-13)",Kd,CXCR4,0.0218 µM
same,cell viability,U87-CXCR4 + cells,52.3 ± 9.9%
